Peptide text beside a SMILES is read from it.
What was measured:
HeLa cells [1] = test: Flow cytometry analysis of cellular uptake; type: cell-based; conditions: free FITC 25 µM, 2 h, trypsin treated
Experimental: To evaluate the capability of GMA4C to penetrate mammalian cells, we synthesized the peptide with a fluorescein isothiocyanate (FITC) fluorescent probe at its N-terminus (FITC-GMA4C). Subsequently, we incubated HeLa cells with varying concentrations of FITC-GMA4C for two hours. After thorough washing, we visualized the cells using confocal microscopy imaging. Remarkably, we observed the accumulation and intracellular localization of FITC-GMA4C within the cells, even at low micromolar concentrations (Figs. 3A,B, and S7A). The entry of FITC-GMA4C is depicted by green dots within the cells, indicating effective peptide transduction. […] To ensure that the detected fluorescence signal originated only from peptides internalized within the cells and not from peptides bound to the cell membrane, we washed the cells and subjected them to trypsin treatment at 37 °C. […]
Figure 3 Characterization of GMA4C penetration into HeLa cells by confocal imaging and flow cytometry analysis. […] (B) Quantification of FITC-GMA4C fluorescence intensity. Bars show the mean green fluorescence intensity relative to non-treated cells and normalized to the number of cells. Values were measured using the Color Threshold tab in Fiji. […] (C) Quantification of FITC-GMA4C peptide uptake by cells. […] (D) Quantitative evaluation of flow cytometry signal intensity. Values were measured using FloJo flow cytometry software. […]

HeLa cells [2] = test: Confocal microscopy imaging of cellular penetration; type: cell-based
Experimental: To this end, we explored the internalization kinetics of FITC-GMA4C into the cells. At the outset, we performed a dose–response investigation using a twofold dilution, identifying optimal conditions at 6uM for peptide visualization (Figs. 2 and 3). Subsequently, HeLa cells were cultured with 6 µM FITC-GMA4C and imaged at different time points.
Figure 4 Time response of FITC-GMA4C uptake into HeLa cells. (A) Cells were cultured with 6 µM of FITC-GMA4C at 37 °C, followed by PBS washing and subsequent fixation with 4% PFA and post-fixation staining with DAPI. Images of cells were taken by confocal microscopy visualizing FITC-GMA4C (green) and DAPI (Blue). Scale bar: 100 µm. (B) Quantification of FITC-GMA4C fluorescence intensity. Bars show the mean green fluorescence intensity relative to non-treated cells and normalized to the number of cells. Values were measured using the Color Threshold tab in Fiji. […]
Given the remarkable rate and efficiency of the free peptide cellular penetration, we further investigated its capacity to enhance the delivery of large biomolecules into cells. For that purpose, we evaluated the cellular permeabilization of recombinant GFP, expressed and purified with an N- or C-terminus fusion of GMA4C: GFP, GMA4C-GFP and GFP-GMA4C, respectively (Fig. S1). […] Subsequently, we quantified the cellular uptake of the exogenous proteins using flow cytometry analysis. […]

| Compound | accumulation in the cell (HeLa cells [1]) | time at which significant uptake is observed (HeLa cells [2]) | time to reach uptake equilibrium (HeLa cells [2]) [min] |
| --- | --- | --- | --- |
| fluorescein isothiocyanate [free-FITC] | only slightly accumulated | – | – |
| C[C@@H](O)[C@H](NC(=O)[C@H](CS)NC(=O)[C@H](Cc1ccccc1)NC(=O)[C@H](CS)NC(=O)[C@H](CCCNC(=N)N)NC(=O)[C@H](CCCNC(=N)N)NC(=O)[C@H](CCCNC(=N)N)NC(=O)[C@H](Cc1ccccc1)NC(=O)CNC(=O)[C@H](CCCNC(=N)N)NC(=O)[C@H](CS)NC(=O)[C@H](CCCNC(=N)N)NC(=O)CN)C(=O)N[C@H](C(=O)N[C@@H](Cc1c[nH]cn1)C(=O)N[C@@H](CS)C(=O)O)[C@@H](C)O [GMA4C] (H-GRCRGFRRRCFCTTHC-OH; N-terminus and C-terminus assumed) | – | under 15 min | ≤ 30 |

From publication PMC10897151, “Nature-inspired peptide of MtDef4 C-terminus tail enables protein delivery in mammalian cells” (Scientific Reports, 2024)
